In publication PMC9085577, “Discovery of a Potent and Orally Active Dual GPBAR1/CysLT1R Modulator for the Treatment of Metabolic Fatty Liver Disease” (Frontiers in Pharmacology, 2022):

How the values were obtained:
[1] = LogD octanol/PBS pH 7.4; assay type: physicochemical
Method: LogD. Measurements 40 µL of selected compounds were dissolved in 1960 µL of PBS pH 7.4/Octanol. Samples were shacked for 2 h at rt, 10 µL of each phase were withdrawn, diluted in 490 µL of MeOH, and analyzed by LC-MSMS. The ratio of mass signal area obtained in octanol and PBS at pH 7.4 and in organic solvent was employed to calculate LogD.

[2] = Metabolic stability in liver S9 fraction; assay type: in vitro ADME
Method: Metabolic Stability. All compounds were tested at the final concentration of 1 µM in a 50 mM potassium phosphate buffer (pH 7.4) containing 1% DMSO as vehicle. For microsomes assay, the incubation mixtures contained 0.15 mg of Human liver microsomes (Sigma-Aldrich, St. Louis, MO, United States), 5 mM MgCl2, 1 mM NADPH, 5 mM glucose 6-phosphate, 0.4 U mL^−1 glucose 6-phosphate dehydrogenase. For S9 fraction analysis, the buffer contained 0.15 mg of S9 proteins (Sigma-Aldrich, St. Louis, MO, United States), 0.3 mM NADPH, 5.6 mM glucose-6-phosphate, 0.6 units/mL glucose-6-phosphate dehydrogenase, 5.8 mM UDP-glucuronic acid, 0.05 mM acetyl-CoA, 0.5 mM dithiothreitol, 0.5 mM 3′-phosphoadenosine 5′-phosphosulfate, 1 mM glutathione, 0.2 mM acetyl carnitine, 4 units/mL carnitine acetyl transferase, 0.5 mM glycine, and 0.5 mM taurine.
Samples were kept at 37°C and aliquots were removed at 0, 5, 15, 30, 45, 60, 90, 120, 150 min after protein additions. The reaction was stopped by adding 200 µL of ice-cold acetonitrile to withdrawn aliquots. After 2 h, samples were centrifuged for 10 min at 10,000 rpm, and supernatants were subjected to LC-MS/MS analysis. […]
In vitro intrinsic clearance (Clint expressed as µL/min/mg) was calculated according to the following formula: Clint = Vx 0.693/t1/2 were V = volume of reaction (µL)/protein in the incubation (mg). […]

With `O=C(O)c1cccc(-c2ccc(OCc3ccc4ccccc4n3)cc2)c1` [Compound 2, 4'-(quinolin-2-ylmethoxy)-[1,1′-biphenyl]-3-carboxylic acid] the LogD [1] was “proper”, the logD at 2 h ([1]; octanol/PBS) was 2 and the microsomal CLint at 1 µM ([2]; pH 7.4) was 6 µL/min/mg. For the same compound, the half-life at 1 µM ([2]; pH 7.4, read-out: S9 fraction t1/2) was 6.42 h.
